# Source: patent US6576593B2, “Synergistic herbicidal compositions comprising herbicides from the benzoylcyclohexanedione group for use in maize corps” (Aventis CropScience GmbH, priority 2001, dated 2003)
# How the values were obtained:
# [1] = system: Ipomea laputifolia (IPOMEA); experiment: Herbicidal activity of A5, herbicides (B) and their combinations, visual scoring, against IPOMEA; type: in vivo
# Protocol: (§1) The herbicidal efficacy of the active ingredients or active ingredient mixtures was scored visually by comparing the treated plots with untreated control plots. The damage and development of all aerial plant parts was recorded. […] The score figures of in each case 4 plots were averaged. Maize plants were grown in the open on plots of from 5 to 10 m^2 in size on different soils and under various climatic conditions, the natural presence of harmful plants or seeds thereof in the soil being exploited for the experiments. […] The active ingredient or active ingredient combinations were applied post-emergence as WG, WP or EC formulations. After 2 to 8 weeks, the plants were scored visually in comparison with an untreated comparison group. […] Moreover, the herbicidal activities of the compositions according to the invention exceed the expected values calculated using Colby's formula. In contrast, the maize plants were left unharmed or virtually unharmed as a consequence of the treatment. When applying the combinations according to the invention, herbicidal effects are frequently observed on a harmful plant species which exceed the formal total of the effects of the herbicides present when these are applied by themselves. Alternatively, it is observed in some cases that a lower application rate is required for the herbicide combination in order to achieve the same effect on a harmful plant species in comparison with the individual products. […] The biological examples listed in the tables hereinbelow relate to the herbicidal activity of combinations according to the invention of the following herbicides against the harmful plants Ipomea laputifolia (IPOMEA) and Avena fatua (AVENA): […]
# Avena fatua (AVENA) = experiment: Herbicidal activity of A5, herbicides (B) and their combinations, visual scoring, against AVEFA; type: in vivo
# Protocol: as §1
compound,measurement,setting,value
"CC(C)N(C(=O)COc1nnc(C(F)(F)F)s1)c1ccc(F)cc1 [Compound B1.4, flufenacet]",pest or weed control at 373 g/ha,"[1]; Dosage 373 g ai/ha, read-out: Activity against IPOMEA found",25%
same,pest or weed control at 373 g/ha,"Avena fatua (AVENA); Avena fatua, Dosage 373 g ai/ha, read-out: Activity against AVEFA found",50%
"CCc1cccc(C)c1N(C(=O)CCl)C(C)COC (stereo not drawn) [Compound B1.5, metolachlor]",pest or weed control at 960 g/ha,"[1]; Dosage 960 g ai/ha, read-out: Activity against IPOMEA found",13%
same,pest or weed control at 960 g/ha,"Avena fatua (AVENA); Avena fatua, Dosage 960 g ai/ha, read-out: Activity against AVEFA found",20%
"CCNc1nc(Cl)nc(NC(C)C)n1 [Compound B2.1, atrazine]",pest or weed control at 540 g/ha,"[1]; Dosage 540 g ai/ha, read-out: Activity against IPOMEA found",25%
same,pest or weed control at 540 g/ha,"Avena fatua (AVENA); Avena fatua, Dosage 540 g ai/ha, read-out: Activity against AVEFA found",50%
"N#Cc1cc(Br)c(O)c(Br)c1 [Compound B2.2, bromoxynil]",pest or weed control at 140 g/ha,"[1]; Dosage 140 g ai/ha, read-out: Activity against IPOMEA found",25%
same,pest or weed control at 140 g/ha,"Avena fatua (AVENA); Avena fatua, Dosage 140 g ai/ha, read-out: Activity against AVEFA found",20%
"COc1c(Cl)ccc(Cl)c1C(=O)O [Compound B4.1, dicamba]",pest or weed control at 80 g/ha,"[1]; Dosage 80 g ai/ha, read-out: Activity against IPOMEA found",25%
same,pest or weed control at 80 g/ha,"Avena fatua (AVENA); Avena fatua, Dosage 80 g ai/ha, read-out: Activity against AVEFA found",10%
"CCc1cnc(C2=NC(C)(C(C)C)C(=O)N2)c(C(=O)O)c1 (stereo not drawn) [Compound B5.6, imazethapyr]",pest or weed control at 30 g/ha,"[1]; Dosage 30 g ai/ha, read-out: Activity against IPOMEA found",25%
same,pest or weed control at 30 g/ha,"Avena fatua (AVENA); Avena fatua, Dosage 30 g ai/ha, read-out: Activity against AVEFA found",10%
"COC(=O)c1ccc(I)cc1S(=O)(=O)[N-]C(=O)Nc1nc(C)nc(OC)n1.[Na+] [Compound B5.7, iodosulfuron-methyl-sodium]",Activity against IPOMEA found,[1]; Dosage 1 g ai/ha,20%
same,Activity against AVEFA found,Avena fatua (AVENA); Dosage 1 g ai/ha,30%
"COc1cc(OC)nc(NC(=O)NS(=O)(=O)c2ncccc2C(=O)N(C)C)n1 [Compound B5.9, nicosulfuron]",pest or weed control at 15 g/ha,"[1]; Dosage 15 g ai/ha, read-out: Activity against IPOMEA found",20%
same,pest or weed control at 15 g/ha,"Avena fatua (AVENA); Avena fatua, Dosage 15 g ai/ha, read-out: Activity against AVEFA found",40%
"CCC(CC)Nc1c([N+](=O)[O-])cc(C)c(C)c1[N+](=O)[O-] [Compound B7.1, pendimethalin]",pest or weed control at 840 g/ha,"[1]; Dosage 840 g ai/ha, read-out: Activity against IPOMEA found",40%
same,pest or weed control at 840 g/ha,"Avena fatua (AVENA); Avena fatua, Dosage 840 g ai/ha, read-out: Activity against AVEFA found",10%
